# Results from patent US20230357761A1, “ACTIVATORS OF TYPE III CAS PROTEINS” (THE REGENTS OF THE UNIVERSITY OF CALIFORNIA, priority 2020, published 2023).
# [5mC] = 5-methylcytosine; d = 2'-deoxy (DNA); r = 2'-OH (RNA); f = 2'-fluoro
# Key:
# [1] = target: T1, T. thermophilus Csm6 (TtCsm6) (Thermus thermophilus, UniProt Q53W17); assay: Cas13-coupled TtCsm6 activation assay, fluorescence of cleaved polyC RNA reporter; assay type: biochemical; conditions: for kinetics of development of fluorescent signal over time / duration and level of fluorescent signal: FIG. 2; for kinetics of development of fluorescent signal over time: 20 nM Cas13 RNP, 100 nM Csm6, 100 pM Cas13 activator [R010], 200 nM C5 reporter, 2 μM Type III accessory nuclease activator, IGI buffer, versus unmodified NCR142; for duration and level of fluorescent signal: same reaction as E1, versus unmodified NCR142, which was used at 4 times the concentration
# T1 sequence (Q53W17 1-464): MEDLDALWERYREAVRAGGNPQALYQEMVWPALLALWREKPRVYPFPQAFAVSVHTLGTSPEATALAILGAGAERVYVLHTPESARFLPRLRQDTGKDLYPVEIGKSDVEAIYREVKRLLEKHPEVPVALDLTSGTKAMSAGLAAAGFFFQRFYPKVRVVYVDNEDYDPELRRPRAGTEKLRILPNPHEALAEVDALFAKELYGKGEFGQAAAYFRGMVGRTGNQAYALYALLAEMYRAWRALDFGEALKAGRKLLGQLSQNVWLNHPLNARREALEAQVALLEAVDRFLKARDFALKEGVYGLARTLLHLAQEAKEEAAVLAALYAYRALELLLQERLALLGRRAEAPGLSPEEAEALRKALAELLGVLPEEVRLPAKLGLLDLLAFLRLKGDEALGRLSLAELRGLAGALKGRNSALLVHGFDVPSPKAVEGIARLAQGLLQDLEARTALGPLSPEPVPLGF
# Description: To test the impact of modifications of the Type III accessory nuclease activators, the following system was used (see FIG. 1). Cas13 ribonucleoprotein complexes (RNP) were assembled using LbuCas13 protein and guides at room temperature at a concentration of 0.5 μM Cas13 in 1× reaction buffer.
# In some experiments, the 1× reaction buffer comprised 20 mM HEPES, pH 6.8, 50 mM KCl, 5 mM MgCl2, 100 μg/mL BSA, 0.01% Igepal CA, 2% glycerol (“IGI buffer”) while in other experiments, the 1× reaction buffer comprised 20 mM HEPES, pH 6.8, 50 mM KCl, 5 mM MgCl2, 5% glycerol (“Ott buffer”). Once assembled, the RNPs were diluted with 1× reaction buffer to 10× the final [RNP] in the reaction (200 nM for 20 nM final concentration). Concentrated T. thermophilus Csm6 (TtCsm6) protein was also diluted to 10× the concentration (1 μM for 100 nM final concentration) in 1× reaction buffer. The activator mix was assembled on ice, containing 20× concentration of the Cas13 activator, 20× concentration of the secondary Csm6 activator, and 10× of a polyC RNA reporter (6-FAM-CCCCC-Iowa Black®, Integrated DNA Technologies) in 1× reaction buffer. The proteins were then mixed together to make an RNP/protein master mix in 1× reaction buffer. Volumes to use were determined such that 15 μL of this master mix was added to 5 μL of the activator mix for a final volume of 20 μL for the reaction. Reactions were performed in triplicate. The RNP master mix was equilibrated at room temperature for 10-15 minutes. 15 μL of the RNP/protein master mix was then added to 5 μL of the activator master mix (pre-loaded into 384-well low-volume flat-bottom black assay plate, Corning) to start the reaction. Fluorescence of the unquenched 6-FAM group (excitation 485 nm, emission 535 or 528 nm) was monitored over 1-2 hours (one reading every 1.5 or 2 min) in a Tecan or Biotek Cytation 5 plate reader at 37° C. An increase in fluorescence correlates with dequenching of the FAM due to RNA cleavage by TtCsm6.
# NCR142, NCR372, NCR373 and NCR374 were compared in the system described above. Specifically, 20 nM Cas13 RNP (assembled at a ratio of 2:1 guide to protein), 100 nM Csm6, 100 pM Cas13 activator [R010]], 200 nM C5 RNA reporter (i.e., 5′-6-FAM-CCCCC-Iowa Black-3′, Integrated DNA Technologies), 2 μM Type III accessory nuclease activator, 1×IGI buffer were used, with the experiment monitored on a Tecan Spark.
# Next, several different 2′-deoxy modified Type III accessory nuclease activators were compared where the activators had 1 to 3 modifications and the modifications were in different locations (see Table 3 and FIG. 4). In these experiments, 20 nM Cas13 RNPs using a guide, GJK073, targeting a short synthetic RNA target, GJK075, was used (see Table 2). In addition, 100 nM Csm6 was used, plus 0 to 200 pM Cas13 activator (GJK075), 2 μM Csm6 activator, 200 nM C5 reporter, and Cas13 1× buffer (IGI). The experiments were carried out at 37° C. in low volume flat-bottom black plates and fluorescence was measured on a Biotek Cytation 5.
# The NCR497 activator was also tested over a range of Type III accessory nuclease activator concentrations and Type VI nuclease activator concentrations. In these experiments, 20 nM Cas13 RNPs comprising the NCR316 guide at a ratio of 2:1 protein to guide were used. In addition, 100 nM TtCsm6 and 200 nM C5 reporter was used where the reaction was carried out in low-volume, flat-bottom plates at 37° C. analyzed on a Biotek citation 5. Type VI nuclease activator (aNCR316) was used at 2 pM or 200 pM concentrations.
# A Type III accessory nuclease activator comprising a single 2′-fluoro modified nucleotide was also modified to create an activator with a single cleavage location for the Cas13 trans nuclease activity. In this Type III accessory nuclease activator, the poly U stretch was replaced with a single U nucleotide followed by C nucleotides. […]
# Csm6 = target: T2, Csm6 (Thermus thermophilus, UniProt Q53W17); assay: Sensitivity of Cas13 RNA detection with and without Csm6 and its Type III accessory nuclease activator; assay type: biochemical, T. thermophilus; conditions: 37° C.
# T2 sequence (Q53W17 1-464): T1 sequence (Q53W17 1-464)
# Description: In some experiments, the 1× reaction buffer comprised 20 mM HEPES, pH 6.8, 50 mM KCl, 5 mM MgCl2, 100 μg/mL BSA, 0.01% Igepal CA, 2% glycerol (“IGI buffer”) while in other experiments, the 1× reaction buffer comprised 20 mM HEPES, pH 6.8, 50 mM KCl, 5 mM MgCl2, 5% glycerol (“Ott buffer”). Once assembled, the RNPs were diluted with 1× reaction buffer to 10× the final [RNP] in the reaction (200 nM for 20 nM final concentration). Concentrated T. thermophilus Csm6 (TtCsm6) protein was also diluted to 10× the concentration (1 μM for 100 nM final concentration) in 1× reaction buffer. The activator mix was assembled on ice, containing 20× concentration of the Cas13 activator, 20× concentration of the secondary Csm6 activator, and 10× of a polyC RNA reporter (6-FAM-CCCCC-Iowa Black®, Integrated DNA Technologies) in 1× reaction buffer. The proteins were then mixed together to make an RNP/protein master mix in 1× reaction buffer. Volumes to use were determined such that 15 μL of this master mix was added to 5 μL of the activator mix for a final volume of 20 μL for the reaction. […] Fluorescence of the unquenched 6-FAM group (excitation 485 nm, emission 535 or 528 nm) was monitored over 1-2 hours (one reading every 1.5 or 2 min) in a Tecan or Biotek Cytation 5 plate reader at 37° C. An increase in fluorescence correlates with dequenching of the FAM due to RNA cleavage by TtCsm6. […]
substance,measurement,setting,value
"AAdAAUUUUUU (AAAAUUUUUU; sugars from the 5' end r2 d1 r7, backbone not given here) [NCR654]","kinetics and signal, 2′-deoxy modified activators","[1]; FIG. 4, guide GJK073, 0 to 200 pM Cas13 activator GJK075, 2 μM Csm6 activator, 37° C., versus unmodified activators",rapid kinetics and were able to achieve a high and stable signal
"AfAAAUCC (metdC) (metdc) C (AAAAUCCCCC; sugars from the 5' end r1 f1 r5 d2 r1, [5mC] at 8, 9, backbone not given here) [NCR690]",activity of the system,"[1]; FIGS. 8 and 9, activator at 2, 0.2 and 0.1 μM, Cas13 activator at 200 or 2 pM",robust activity
same,background signal,"[1]; FIGS. 8 and 9, compared to NCR497 at the same concentrations",higher background signal compared to the NCR497
"AfAAAUUUUUU (AAAAUUUUUU; sugars from the 5' end r1 f1 r8, backbone not given here) [NCR497]",limit of detection of the Cas13 activator,"Csm6; 50 nM Cas13 RNP (guides NCR604 and NCR612), 100 nM Csm6, 2 μM NCR497, gblock7 transcript 0-20 pM, Ott buffer",approximately 2 fM
same,increase in sensitivity when Csm6 reagents were added to the Cas13 detection system,"Csm6; FIG. 10, 200 nM Cas13 RNP (guide NCR316) alone vs plus 100 nM Csm6 and 2 μM NCR497, aNCR316 200 aM to 200 pM, IGI buffer",100 fold
same,"kinetics, 2′-fluoro modified activators",[1]; FIG. 5,rapid and stable kinetics
same,background signal (0 pM Cas13 activator curves),"[1]; FIG. 5, compared to the 2′-deoxy modified activators",decreased background signal
same,signal in the reaction,"[1]; FIGS. 6 and 7, guide NCR316, 2 pM Type VI nuclease activator aNCR316, versus NCR142 at 2 pM or 200 pM",better signal
"dAdAdAAUUUUUU (AAAAUUUUUU; sugars from the 5' end d3 r7, backbone not given here) [NCR373]",kinetics of development of fluorescent signal over time,[1],slower kinetics than the unmodified Type III accessory nuclease activator
same,duration and level of fluorescent signal,[1],longer lived and reached higher levels than the unmodified activator
"fAfAfAAUUUUUU (AAAAUUUUUU; sugars from the 5' end f3 r7, backbone not given here) [NCR374]",kinetics of development of fluorescent signal over time,[1],slower kinetics than the unmodified Type III accessory nuclease activator
same,duration and level of fluorescent signal,[1],longer lived and reached higher levels than the unmodified activator
